According to patent US11123328B2 (UNIVERSITY HEALTH NETWORK, priority 2017, dated 2021):
“Also recorded” adds a separate entry of the source.

Legend:
[1] = tested on: Langendorff-perfused rabbit hearts; experiment: Calcium alternans by optical mapping in Langendorff-perfused rabbit hearts stressed by VF (Example 1); conditions: for CaAR (calcium alternans ratio) / SD of CaAR (surrogate for spatial dyssynchrony): azumolene 20 μM; for SD of CaAR (surrogate for spatial dyssynchrony): n=8
Text: The term “cardiac dyssynchrony” as used herein means improper synchronization of calcium cycling in the heart or a part thereof, including for example temporal dyssynchrony and/or spatial dyssynchrony, optionally due to calcium leak from ryanodine type 2 receptor (RyR2) channels, leading to decreased calcium uptake and/or release in the sarcoplasmic reticulum (SR). RyR2 are found primarily in cardiac muscle and are a major mediator for SR release of calcium ions. Spatio-temporal dyssynchrony of calcium alternans can be measured by calculating a calcium alternans ratio (CaAR) for temporal mechanical dyssynchrony or by measuring the standard deviation (SD) of CaAR as a surrogate for spatial mechanical dyssynchrony. CaAR can be calculated as the amplitude of a Ca peak divided by the amplitude of a following Ca peak in a calcium transient measurement such as in FIG. 5. The smallest amplitude of Ca peak is divided by the largest amplitude of Ca peak. The larger the ratio the more similar the peak sizes. A ratio of 1 indicates no calcium alternans. Ratios of less than 1, optionally 0.8, 0.7 etc are indicative of cardiac dyssynchrony. Similarly mean standard deviations in calcium alternans ratios of greater than 0.05, greater than 0.06 or greater than 0.07 etc are indicative of cardiac dyssynchrony.
Their effect on temporal calcium alternans ratio (CaAR) before and after ventricular fibrillation (VF) (as a surrogate for temporal mechanical dyssynchrony) and standard deviation (SD) of CaAR from the anterior wall of left ventricular, which is used as a surrogate for spatial mechanical dyssynchrony, were assessed. […] Simultaneous optical mapping was performed. Calcium alternans are defined as beat-to-beat variability of 10% or more in calcium transient amplitudes.

animal hearts = experiment: Optical mapping and LVDP in hearts subjected to myopathic insults, azumolene pre-treated or not (Example 3); conditions: for calcium alternans ratio map values: scale 0.00 to 0.40
Experimental: FIGS. 6A and 6B are a schematic and images, respectively, of the experimental protocol of animal hearts, pre-treated or not with azumolene, subjected to myopathic insults.
The effect of azumolene was further investigated. Optical mapping and left ventricular developed pressure (LVDP) were measured at baseline and following inducement of myopathic insults to the hearts (see FIGS. 6A and 6B). […] FIGS. 8A and 8B show the occurrence of spatial dyssynchronic in untreated compared to azumolene-treated hearts.

[2] = tested on: patients without known cardiac disease; experiment: Safety of chronic oral dantrolene, 10-year experience: ECG and echocardiogram (Example 5)
Text: If more than 1 electrocardiogram and/or echocardiogram were available for any single patient, all were studied (to assess for any abnormality), but only the latest (with the longest therapy duration) was included in the analysis.

[3] = tested on: patients without known cardiac diseases; conditions: human, in vivo
[4] = tested on: ventricular arrhythmia swine model; conditions: previous work [4]; cited from earlier work
[5] = tested on: patients without known cardiac diseases; experiment: Safety of chronic oral dantrolene: ECG, echo, Holter, stress test in patients (Example 4)
[6] = azumolene pretreatment, following myopathic insults, FIG. 9
[7] = both, human, in vivo, 10.9 years

In the case of O=C1CN(/N=C/c2ncc(-c3ccc(Br)cc3)o2)C(=O)N1 [azumolene], the “heterogeneity in calcium alternans in response to myopathic stress” value [1] is reported as “minimizes heterogenity in calcium alternans”, the “CaAR (calcium alternans ratio)” value ([1]; after 1st VF) is reported as 0.97±0.02 and the “SD of CaAR (surrogate for spatial dyssynchrony)” value ([1]; after 1st VF) is reported as 0.025±0.003. The “CaAR (calcium alternans ratio)” value ([1]; after 2nd VF) was 0.94±0.02, the “SD of CaAR (surrogate for spatial dyssynchrony)” value ([1]; after 2nd VF) was 0.039±0.004 and the “spatial calcium release dyssynchrony (calcium release tracings)” value ([1]; azumolene-treated vs untreated hearts after VF, FIG. 2) was “reduced spacial calcium release dyssynchrony; also recorded: spatial calcium release disordering is abrogated”. The “calcium alternans in ratio maps” value ([1]; post 1st VF at 6.0 Hz, FIG. 5D vs 5B) was “fewer calcium alternans”, the “mean calcium alternans index” value (animal hearts; after myopathic insults, FIG. 7) was “untreated-hearts increased significantly compared to azumolene-treated hearts” and the LVDP (animal hearts; [6]) was “significantly improved”. The dp/dtmax (animal hearts; [6]) was “significantly improved”, the “calcium alternans ratio map values” (animal hearts; azumolene-treated heart at baseline, FIG. 8A) was 0.025 to 0.05 and the “calcium alternans ratio map values” (animal hearts; azumolene-treated heart post myopathic insults, FIG. 8A) was 0.05 to 0.1. For the same compound, the “mean of standard deviation” value (animal hearts; post myopathic insults, FIG. 8B) was “significantly increased in the control group post myopathic insults compared to the azumolene-treated group” and the “spatial calcium release dyssynchrony” value (animal hearts; vs untreated hearts, FIG. 8A) was “reduce spatial calcium release dyssynchrony”.
With O=C1CN(/N=C/c2ccc(-c3ccc([N+](=O)[O-])cc3)o2)C(O)=N1 [dantrolene] the “heterogeneity in calcium alternans in response to myopathic stress” value [1] was “minimizes heterogenity in calcium alternans”, the “Number of patients with PR >200 ms” value [2, 7] was 1 (5) n (%) and the “Number of patients with QTc >460 ms” value [2, 7] was 1 (5) n (%). For the same compound, the “QTc of the patient with QTc >460 ms” value ([2]; female, human, in vivo) was 465 ms, the “Absolute change in average PR ± SD” value ([2]; human, in vivo) was 12 ± 8 (p = 0.14) ms and the “Absolute change in average QRS ± SD” value ([2]; human, in vivo) was 4 ± 3, (p = 0.71) ms. The “Absolute change in average QTc ± SD” value ([2]; human, in vivo) was 12 ± 17, (p = 0.27) ms, the “PR of the patient with PR >200 ms” value ([2]; human, in vivo) was 222 ms and the “QRS or QTc prolongation” value ([2]; in vivo) was “did not have QRS or QTc prolongation”. The “conduction and repolarization parameters” value ([2]; in vivo) was “within normal limits”, the “dose-related QTc prolongation” value ([2]; in vivo) was “No dose-related QTc prolongation” and the “left ventricular (LV) size and systolic function” value ([2]; in vivo) was “normal”. The rhythm in electrocardiograms ([2]; in vivo) was “sinus rhythm”, the “major cardiac events (serious arrhythmia, sudden death, or myocardial infarction)” value ([2]; mean 10.9±6 years follow-up) was “no major cardiac events” and the “LV size and function” value [3] was “normal”. The “arrhythmia in Holter or stress tests” value [3] was “No major arrhythmia”, the “rest of the depolarization and repolarization parameters” value [3] was “within normal limits” and the “rhythm in ECGs” value [3] was “sinus rhythm”. For the same compound, the JTc ([3]; po) was 304 ± 79 ms, the QRS ([3]; po) was 98 ± 10 ms and the “QRS or QTc prolongation, arrhythmia, pauses, significant cardiac events” value ([3]; po) was “did not have QRS or QTc prolongation, arrhythmia, pauses, or significant cardiac events”. For the same compound, the “effect on LV systolic function” value ([3]; po) was “No detrimental effect”, the mean heart rate ([3]; po) was 67 (±14) and the “effect on the QT” value [4] was “did not affect the QT”. For the same compound, the PR ([5]; chronic oral dantrolene (>3 months)) was 173 ± 19 ms and the “major cardiac events (life-threatening arrhythmia, sudden death, myocardial infarction)” value ([5]; during dantrolene therapy, most >5 years) was “No major cardiac events”.
